Measured values from publication PMC12410356 (International Journal for Parasitology: Drugs and Drug …, 2025).

Key:
[1] = tested on: E. multilocularis metacestode vesicles; assay: Metacestode vesicle viability assay (ATP, CellTiter-Glo); assay type: cell-based, Echinococcus multilocularis
Experimental: Viability was assessed after 12 days using the same metacestode vesicles as for the PGI release assay. Triton X-100 was added to each well to a final concentration of 0.1 %. Subsequently the metacestode vesicles were broken mechanically and 50 μL of the supernatant was mixed with 50 μL of CellTiter-Glo® buffer (Promega, Dübendorf, Switzerland). Measurements were performed on a HIDEX Sense microplate reader.

[2] = tested on: E. multilocularis metacestode vesicles; assay: Phosphoglucose isomerase (PGI) release assay (damage-marker release) on metacestode vesicles; assay type: cell-based, Echinococcus multilocularis; settings: 10 μM; for PGI d5 (relative PGI release): 5 days; for PGI d12 (relative PGI release): 12 days
[3] = overview screen, singlets, relative to 0.1 % Triton X-100, DMSO subtracted
[4] = overview screen, 10 μM, singlets, 12 days, relative to DMSO control
[5] = confirmation screen, 10 μM, triplicates, mean, 12 days
[6] = confirmation screen, triplicates, mean

| Structure (SMILES) | Viability d12 (relative viability) ([1]; 10 µM) | PGI d5 (relative PGI release) [2, 3] | PGI d12 (relative PGI release) [2, 3] | Viability d12 (relative viability) [1, 4] | Viability d12 (relative viability) [1, 5] | PGI d5 (relative PGI release) [2, 6] | PGI d12 (relative PGI release) [2, 6] |
| --- | --- | --- | --- | --- | --- | --- | --- |
| C=C[C@]1(C)C[C@@H](OC(=O)CS[C@@H]2C[C@H]3CC[C@@H](C2)N3C)[C@]2(C)[C@H](C)CC[C@]3(CCC(=O)[C@H]32)[C@@H](C)[C@@H]1O [MMV1633674] | 92.0635% | -1.377% | 19.1844% | – | – | – | – |
| CC(C)c1cc2c(cc1S(=O)(=O)O)[C@@]1(C)CCC[C@@](C)(C(=O)O)[C@@H]1CC2 [MMV1633675] | – | -5.75% | -3.32% | 100.907% | – | – | – |
| Nc1nc2c(ncn2[C@@H]2O[C@H](CO)[C@@H](O)[C@H]2F)c(=O)[nH]1 [MMV1633677] | – | -0.3308% | 49.9588% | 216.057% | – | – | – |
| CC[C@@]1(O)C(=O)OCc2c1cc1n(c2=O)Cc2cc3c(CN(C)C)c(O)ccc3nc2-1.Cl [MMV1633678] | – | 0.263% | -2.724% | 288.666% | – | – | – |
| CCc1ccccc1OCCN1CCCCCC1 [MMV1633962] | – | 1.217% | -18.8642% | 159.976% | – | – | – |
| O=C(O)/C=C/C=C/c1cccc(Oc2cc(Cl)cc(Cl)c2)c1 [MMV1633963] | – | 0.04404% | 0.4233% | 136.634% | – | – | – |
| O=C(NCCN1CCCCC1)c1cccc(C(F)(F)F)c1 [MMV1633964] | – | 0.4856% | -18.3006% | 94.8358% | – | – | – |
| COc1c(NC(=O)[C@H]2CC[C@@H](COc3ccc([N+](=O)[O-])cc3)CC2)c(F)cc2c(=O)c(C(=O)O)cn(C3CC3)c12 [MMV1633965] | – | 0.7075% | -11.0947% | 49.6807% | – | – | – |
| Nc1nnnn1CCOc1c2[nH]c3ccc(Cl)cc3c2cc2c1[nH]c1ccc(Cl)cc12 [MMV1633966] | – | 3.53% | 16.3673% | 104.455% | – | – | – |
| CCOC(=O)Nc1cc(NC(C)CC(C)CN(CC)CC)c2nc(-c3ccccc3)c(-c3ccccc3)nc2n1 (stereo not drawn) [MMV1633967] | – | -2.798% | -20.9085% | 104.121% | – | – | – |
| Nc1nc(-c2ccccc2)nc2[nH]nc(Nc3ccc(C(F)(F)F)cc3)c12 [MMV1633968] | – | 0.2239% | 0.02121% | 133.404% | – | – | – |
| O=C(O)c1ccc(-c2ccc(O[C@H]3O[C@H](CO)[C@@H](O)[C@H](O)[C@@H]3O)cc2)cc1 [MMV1633970] | – | 0.1129% | -1.296% | 109.047% | – | – | – |
| CCOc1noc2cc(OCCC3CCN(c4ccc(C)nn4)CC3)ccc12 [MMV1634071] | – | 0.1516% | -20.1339% | 88.166% | – | – | – |
| CCC(C)(C)c1ccc(CC(C)CN2C[C@@H](C)O[C@@H](C)C2)cc1.Cl (stereo partly drawn) [MMV1634358] | – | 0.7921% | -20.4097% | 23.2957% | – | – | – |
| CN(C/C=C/C#CC(C)(C)C)Cc1cccc2ccccc12 [MMV1634359] | – | -1.48% | -21.017% | 186.198% | – | – | – |
| O=C1c2cccc3cccc(c23)C(=O)N1CC1CO1 (stereo not drawn) [MMV1634360] | – | -2.544% | 17.7299% | 25.8841% | – | – | – |
| N[C@H]1CCC[C@H]1C(=O)O [MMV1634361] | – | 0.2611% | 0.2526% | 78.6856% | – | – | – |
| C[C@@H](c1nc(-c2ccc(C#N)cc2)cs1)[C@](O)(Cn1cncn1)c1ccc(F)cc1F [MMV1634362] | 103.703% | -1.682% | -23.6483% | – | – | – | – |
| OB1OCc2cc(Cl)ccc21 [MMV1634363] | – | -0.4278% | -12.2339% | 101.699% | – | – | – |
| CCc1cc(Nc2cc(=O)n(CCN3CCN(C(=O)c4ccccc4)CC3)c(=O)[nH]2)ccc1C [MMV1634383] | – | 0.8629% | 52.997% | 104.622% | – | – | – |

| Structure (SMILES) | Viability d12 (relative viability) ([1]; 10 µM) | PGI d5 (relative PGI release) [2, 3] | PGI d12 (relative PGI release) [2, 3] | Viability d12 (relative viability) [1, 4] | Viability d12 (relative viability) [1, 5] | PGI d5 (relative PGI release) [2, 6] | PGI d12 (relative PGI release) [2, 6] |
| --- | --- | --- | --- | --- | --- | --- | --- |
| CCN(CC)S(=O)(=O)c1ccc(Cl)c(C(=O)Nc2sc3c(c2C#N)CCCC3)c1 [MMV1634384] | – | 0.5897% | 3.142% | 106.793% | – | – | – |
| Nc1ccc(-c2nc3cc(C(F)(F)F)ccc3n2C23CC4CC(CC(C4)C2)C3)cc1 [MMV1634385] | – | 1.378% | 1.206% | 100.869% | – | – | – |
| O[C@@](Cn1cnnn1)(c1ccc(F)cc1F)C(F)(F)c1ccc(-c2ccc(OCC(F)(F)F)cc2)cn1 [MMV1634386] | – | -2.798% | -27.2627% | 107.711% | – | – | – |
| CC(C)(C)c1ccc(OCCn2nc(C(=O)O)c3ccccc3c2=O)cc1 [MMV1634387] | – | -1.414% | -12.4336% | 144.45% | – | – | – |
| CC(C)N(c1cc(-c2ccccc2)sc1C(=O)O)C(=O)[C@H]1CC[C@H](C)CC1 [MMV1634388] | – | 1.026% | 40.2559% | 13.9085% | 128.08% | 0.59% | 0.29% |
| CCNC(=O)Nc1cc2c(-c3ccnc(C)c3)ccc(CNC(=O)OC)c2cn1 [MMV1634390] | – | 1.116% | -26.1278% | 29.4745% | – | – | – |
| Cn1cc(NC(=O)c2cc(NC(=O)c3ccc(/C=C/c4cnc5ccccc5c4)cc3)cn2C)cc1C(=O)NCCN1CCOCC1 [MMV1634391] | – | -0.2305% | 21.1965% | 70.2948% | – | – | – |
| CCCCc1ccc(-c2nc(C)c(C(=O)OC)s2)cc1 [MMV1634392] | – | 0.3728% | 0.05977% | 152.475% | – | – | – |
| CC(C)(C)c1ccc(C(Cn2cccc(C(F)(F)F)c2=O)NC2Cc3ccccc3C2)cc1 (stereo not drawn) [MMV1634393] | – | -0.3467% | 0.3021% | 102.314% | – | – | – |
| Cc1ccc(N2CCC(CCOc3ccc(S(C)(=O)=O)cc3)CC2)nn1 [MMV1634394] | – | 0.369% | -19.1494% | 249.705% | – | – | – |
| CCc1c(O)nc2ccc(F)cc2c1OCC1CCC1 [MMV1634395] | – | -0.4952% | -17.3568% | 119.991% | – | – | – |
| O=C(c1nc2c(C(F)(F)F)cc(C3CC3)cn2c1Cl)N1CCN([C@H]2CC[C@H](O)CC2)C(=O)C1 [MMV1634396] | – | 0.0006202% | 0.1204% | 113.417% | – | – | – |
| COc1ccc(CNC(=O)C2CCN(C(C)c3cccc4ccccc34)CC2)cc1 (stereo not drawn) [MMV1634397] | – | 1.669% | -0.9153% | 68.3168% | – | – | – |
| CCOc1ccc(/C=N/NC(=O)C2CC2c2ccc(C(C)(C)C)cc2)cc1OCC (stereo not drawn) [MMV1634398] | – | 0.06885% | 0.3627% | 324.092% | – | – | – |
| Cc1nc2ccc(Oc3ccccc3)cc2c2c1CCN2CCc1ccccc1 [MMV1634399] | – | 25.5463% | 44.1623% | 23.583% | 116.13% | 0.85% | 15.15% |
| Cc1ccc(C)c(OCCCCCCN2C[C@H](O)[C@@H](O)[C@H](O)[C@H]2CO)c1 [MMV1634401] | – | 8.592% | 62.8936% | 26.5643% | 146.24% | 1.51% | 2.13% |
| NC(N)=NCCCCC(=O)Nc1cc(C(F)(F)F)cc(NC(=O)c2cc(C(=O)Nc3cc(C(F)(F)F)cc(NC(=O)CCCCN=C(N)N)c3O[C@@H]3CCNC3)ncn2)c1O[C@@H]1CCNC1 [MMV1634402] | – | -1.176% | 3.242% | 96.1157% | – | – | – |
| CS(=O)(=O)c1ccc(Oc2ccc(Cl)cc2)cc1 [MMV1634404] | – | -0.3308% | -18.6197% | 57.7676% | – | – | – |
| O=C(/C(=C/c1ccc(Cl)cc1Cl)n1ccnc1)c1ccc(Cl)cc1 [MMV1634491] | – | 24.947% | 25.566% | 14.6955% | 83.69% | 0.16% | 5.15% |
| Clc1cc(Cl)c2c(c1)CCc1ccccc1C2n1ccnc1 (stereo not drawn) [MMV1634492] | – | -1.087% | -25.0724% | 206.655% | – | – | – |
